Results reported in patent publication US20190352288A1, “MATRIX METALLOPROTEINASE (MMP) INHIBITORS AND METHODS OF USE THEREOF” (Foresee Pharmaceuticals Co., Ltd., priority 2018, published 2019).

target: T1, recombinant human MMP-12 catalytic domain (Homo sapiens, UniProt P39900); experiment: MMP-12 inhibitory assay (fluorogenic substrate cleavage); assay type: biochemical; settings: readout at 30 minutes, 37° C., Table 1
T1 construct: recombinant human MMP-12 catalytic domain; purchased Enzo BML-SE138
Description: The inhibitory effect of compounds on the rate of cleaving fluorogenic MMP substrate (Enzo, BML-P128) by recombinant human MMP-12 catalytic domain (Enzo, BML-SE138) was carried out by methods known in the art. Briefly, to each well of a 96-well black opaque plate, all the reagents were sequentially added by pipetting, and the final reaction contained 4 nM of recombinant human MMP-12 catalytic domain, 4 μM of fluorogenic MMP substrate, and various concentrations (0.15 nM to 10,000 nM) of tested compound dilutions in HEPES buffer (pH 7.5) containing 10 mM of CaCl2), 0.01% Brij® 35 (polyoxyethylene (23) lauryl ether), and 0.1 mg/ml of BSA.
The enzyme and compounds were pre-incubated on a shaker to mix in wells. After an hour of mixing, fluorogenic substrate was added to each well. Reaction without enzyme was used as a blank control in the plate. The plate was then fed into a plate reader to measure fluorescence intensity at Excitation/Emission wavelengths of 340 nm/440 nm every 10 mins for at least 1 hour at 37° C. The IC50 of each compound in MMP-12 inhibition was determined by using a readout obtained at time point 30 minutes.

T1 sequence (P39900 106-268 limits assumed): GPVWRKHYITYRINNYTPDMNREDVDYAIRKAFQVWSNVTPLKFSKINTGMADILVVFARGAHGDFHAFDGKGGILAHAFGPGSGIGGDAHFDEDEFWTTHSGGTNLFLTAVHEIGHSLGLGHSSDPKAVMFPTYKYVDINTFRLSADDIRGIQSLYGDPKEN

Structure (SMILES) | IC50
Cc1cccc(COc2ccc(Sc3ccccc3C3NC(=O)NC3=O)cc2)c1 (stereo not shown) [OC-1] | 10 to 100 nM
Cc1cccc(COc2ccc([S+]([O-])c3ccccc3C3NC(=O)NC3=O)cc2)c1 (stereo not shown) [OC-2] | 100 to 1000 nM
Cc1cccc(COc2ccc(Sc3cc[n+](O)cc3C3NC(=O)NC3=O)cc2)c1 (stereo not shown) [OC-3] | 10 to 100 nM
Cc1cccc(COc2ccc(S(=O)(=O)c3cc[n+](O)cc3C3NC(=O)NC3=O)cc2)c1 (stereo not shown) [OC-4] | > 1000 nM
Cc1cccc(COc2ccc(Sc3cnn(C)c3C3NC(=O)NC3=O)cc2)c1 (stereo not shown) [OC-5] | 10 to 100 nM
Cc1cccc(COc2ccc(Sc3ncn(C)c3C3NC(=O)NC3=O)cc2)c1 (stereo not shown) [OC-6] | 10 to 100 nM
Cc1cccc(COc2ccc(Sc3ncoc3C3NC(=O)NC3=O)cc2)c1 (stereo not shown) [OC-10] | 10 to 100 nM
Cc1cc(COc2ccc(Sc3c(C4NC(=O)NC4=O)ncn3C)cc2)ccn1 (stereo not shown) [OC-14] | 10 to 100 nM
Cc1cccc(COc2ccc(Sc3ncccc3C3NC(=O)NC3=O)cc2)c1 (stereo not shown) [PC-1] | 10 to 100 nM
Cc1cccc(COc2ccc(Sc3ccncc3C3NC(=O)NC3=O)cc2)c1 (stereo not shown) [PC-2] | 10 to 100 nM
Cc1cccc(COc2ccc(Sc3cccnc3C3NC(=O)NC3=O)cc2)c1 (stereo not shown) [PC-3] | 10 to 100 nM
Cc1cccc(COc2ccc(Sc3cnccc3C3NC(=O)NC3=O)cc2)c1 (stereo not shown) [PC-4] | 10 to 100 nM
Cc1cccc(COc2ccc([S+]([O-])c3ccncc3C3NC(=O)NC3=O)cc2)c1 (stereo not shown) [PC-5] | 100 to 1000 nM
Cc1cccc(COc2ccc(S(=O)(=O)c3ccncc3C3NC(=O)NC3=O)cc2)c1 (stereo not shown) [PC-6] | 100 to 1000 nM
O=C1NC(=O)C(c2cnccc2Sc2ccc(OCc3ccc(CO)cc3)cc2)N1 (stereo not shown) [PC-7] | 10 to 100 nM
O=C1NC(=O)C(c2cnccc2Sc2ccc(OCc3ccccc3CO)cc2)N1 (stereo not shown) [PC-9] | 10 to 100 nM
CC(C)[C@H](N)C(=O)OCc1cccc(COc2ccc(Sc3ccncc3C3NC(=O)NC3=O)cc2)c1 (stereo partly shown) [PC-11] | 10 to 100 nM
O=C1NC(=O)C(c2ccncc2Sc2ccc(OCc3ccc(CO)cc3)cc2)N1 (stereo not shown) [PC-14] | 10 to 100 nM
Cc1cncc(COc2ccc(Sc3ccncc3C3NC(=O)NC3=O)cc2)c1 (stereo not shown) [PC-17] | 100 to 1000 nM
Cc1cncc(COc2ccc(Sc3cnccc3C3NC(=O)NC3=O)cc2)c1 (stereo not shown) [PC-19] | 100 to 1000 nM
O=C1NC(=O)C(c2cnccc2Oc2ccc(OCc3cccc(C(=O)O)c3)cc2)N1 (stereo not shown) [PC-23] | > 1000 nM
O=C1NC(=O)C(c2cnccc2Oc2ccc(OCc3cccc(CO)c3)cc2)N1 (stereo not shown) [PC-25] | 10 to 100 nM
Cc1cccc(COc2ccc(Oc3ccncc3C3NC(=O)NC3=O)cc2)c1 (stereo not shown) [PC-26] | 10 to 100 nM
Cc1cc(COc2ccc(Oc3ccncc3C3NC(=O)NC3=O)cc2)ccn1 (stereo not shown) [PC-27] | 10 to 100 nM
CNC(=O)c1cccc(COc2ccc(Sc3ccncc3C3NC(=O)NC3=O)cc2)c1 (stereo not shown) [PC-29] | 10 to 100 nM
COc1cc(COc2ccc(Sc3ccncc3C3NC(=O)NC3=O)cc2)ccn1 (stereo not shown) [PC-30] | 10 to 100 nM

Structure (SMILES) | IC50
CCOc1cc(COc2ccc(Sc3ccncc3C3NC(=O)NC3=O)cc2)ccn1 (stereo not shown) [PC-31] | 10 to 100 nM
CC(C)Oc1cc(COc2ccc(Sc3ccncc3C3NC(=O)NC3=O)cc2)ccn1 (stereo not shown) [PC-32] | 10 to 100 nM
CC(C)COc1cc(COc2ccc(Sc3ccncc3C3NC(=O)NC3=O)cc2)ccn1 (stereo not shown) [PC-33] | 100 to 1000 nM
NC(=O)c1cncc(COc2ccc(Sc3ccncc3C3NC(=O)NC3=O)cc2)c1 (stereo not shown) [PC-34] | 10 to 100 nM
O=C1NC(=O)C(c2cnccc2Sc2ccc(OCc3ccnc(O)c3)cc2)N1 (stereo not shown) [PC-35] | 100 to 1000 nM
CNC(=O)c1cncc(COc2ccc(Sc3ccncc3C3NC(=O)NC3=O)cc2)c1 (stereo not shown) [PC-36] | 100 to 1000 nM
NC(=O)c1ccc(COc2ccc(Sc3ccncc3C3NC(=O)NC3=O)cc2)cc1 (stereo not shown) [PC-37] | 100 to 1000 nM
O=C1NC(=O)C(c2cnccc2Sc2ccc(OCc3cncc(CO)c3)cc2)N1 (stereo not shown) [PC-39] | 100 to 1000 nM
Cc1cc(COc2ccc(Sc3ccncc3C3NC(=O)N(C)C3=O)cc2)ccn1 (stereo not shown) [PC-41] | 100 to 1000 nM
Cc1cc(COc2ccc(Sc3ccncc3C3NC(=O)NC3=O)c(C)c2)ccn1 (stereo not shown) [PC-42] | 10 to 100 nM
Cc1cc(OCc2ccc(Sc3ccncc3C3NC(=O)NC3=O)cc2)ccn1 (stereo not shown) [PC-44] | 10 to 100 nM
Cc1cc(COc2ccc(Sc3cc(C)ncc3C3NC(=O)NC3=O)cc2)ccn1 (stereo not shown) [PC-45] | 10 to 100 nM
Cc1cc(COc2ccc(Sc3ccncc3C3NC(=O)NC3=O)cc2Cl)ccn1 (stereo not shown) [PC-49] | 10 to 100 nM
Cc1cc(COc2ccc(Sc3ccncc3C3NC(=O)NC3=O)cc2F)ccn1 (stereo not shown) [PC-52] | 10 to 100 nM
O=C1NC(=O)C(c2ccncc2Sc2ccc(OCc3ccnc(CO)c3)cc2)N1 (stereo not shown) [PC-53] | 10 to 100 nM
COc1ccc(CN2C(=O)NC(c3cnccc3Sc3ccc(OCc4ccnc(C)c4)cc3)C2=O)cc1 (stereo not shown) [PC-55] | 100 to 1000 nM
Cc1cc(CNc2ccc(Sc3ccncc3C3NC(=O)NC3=O)cc2)ccn1 (stereo not shown) [PC-56] | 10 to 100 nM
Cc1cc(CCc2ccc(Sc3ccncc3C3NC(=O)NC3=O)cc2)ccn1 (stereo not shown) [PC-57] | 10 to 100 nM
Cc1cc(CN(C)c2ccc(Sc3ccncc3C3NC(=O)NC3=O)cc2)ccn1 (stereo not shown) [PC-58] | 10 to 100 nM
NC(=O)c1cc(COc2ccc(Sc3ccncc3C3NC(=O)NC3=O)cc2)ccn1 (stereo not shown) [PC-59] | 100 to 1000 nM
NC(=O)c1cc(COc2ccc(Sc3ccncc3C3NC(=O)NC3=O)cc2)ccn1 (stereo not shown) [PC-60] | 10 to 100 nM
Cc1cc(COc2ccc(Sc3ccncc3C3NC(=O)NC3=O)cn2)ccn1 (stereo not shown) [PC-61] | 100 to 1000 nM
Cc1cc(CCc2ccc(Oc3ccncc3C3NC(=O)NC3=O)cc2)ccn1 (stereo not shown) [PC-62] | 100 to 1000 nM
CCCOc1cccc(COc2ccc(Sc3ccsc3C3NC(=O)NC3=O)cc2)c1 (stereo not shown) [TC1] | 100 to 1000 nM
CCOc1cccc(COc2ccc(Sc3ccsc3C3NC(=O)NC3=O)cc2)c1 (stereo not shown) [TC2] | 100 to 1000 nM
CC(C)Oc1cccc(COc2ccc(Sc3ccsc3C3NC(=O)NC3=O)cc2)c1 (stereo not shown) [TC3] | 100 to 1000 nM
